In US9932543B2, “Bacterial spore compositions for industrial uses” (priority 2014, dated 2018):
Bridge positions count the residues as written; N and C are the ends. Square brackets hold non-standard residues; d marks the D form. Peptide text beside a SMILES is read from it. * marks the point of attachment. Ileψ(thiazoline)Cys = CC[C@H](C)[C@H](N)C1=N[C@H](C(=O)*)CS1; dOrn = NCCC[C@@H](N)C(=O)O

System: Eimeria maxima and Clostridium perfringens
Format: in vivo, Cobb 500 Chicks (Gallus gallus domesticus)
Conditions: infected chickens

## CC[C@H](C)[C@H](N)C1=N[C@H](C(=O)N[C@@H](CC(C)C)C(=O)N[C@H](CCC(=O)O)C(=O)N[C@H](C(=O)N[C@H]2CCCCNC(=O)[C@H](CC(N)=O)NC(=O)[C@@H](CC(=O)O)NC(=O)[C@H](Cc3cnc[nH]3)NC(=O)[C@@H](Cc3ccccc3)NC(=O)[C@H]([C@@H](C)CC)NC(=O)[C@@H](CCCN)NC2=O)[C@@H](C)CC)CS1 [Treatment Group 5, Bacitracin] ({Ileψ(thiazoline)Cys}-L[dE]IK[dOrn]I[dF]H[dD]N; lactam 4-C)
  Weight Gain Day 0-28: 0.811a kg
Day 0-28
  Weight gain over the infected negative control: significant increase in weight gain
Day 28
  Mortality: 3.1b %
Day 28, 0 normal, 3 most severe
  Lesion Score (0-3): 0.5b
Kg of food per kg of body weight
  Feed Conversion Day 0-28: 1.585c
